# Assay results taken from patent US12617758B2, “Quinazoline derivative having FLT3 inhibitory activity, and use thereof” (INDUSTRY-UNIVERSITY COOPERATION FOUNDATION HANYANG …, priority 2020, dated 2026).
# pIC50: −log10 of the molar value. Read-outs that look alike come from different tables or passages of the source.
# Assays:
# Type in all cases: biochemical
# FLT (ITD) = molecular target: T1, FLT (ITD) (Homo sapiens, UniProt P36888); experiment: FLT (ITD) enzyme activity (IC50)
# T1 sequence (P36888 1-993): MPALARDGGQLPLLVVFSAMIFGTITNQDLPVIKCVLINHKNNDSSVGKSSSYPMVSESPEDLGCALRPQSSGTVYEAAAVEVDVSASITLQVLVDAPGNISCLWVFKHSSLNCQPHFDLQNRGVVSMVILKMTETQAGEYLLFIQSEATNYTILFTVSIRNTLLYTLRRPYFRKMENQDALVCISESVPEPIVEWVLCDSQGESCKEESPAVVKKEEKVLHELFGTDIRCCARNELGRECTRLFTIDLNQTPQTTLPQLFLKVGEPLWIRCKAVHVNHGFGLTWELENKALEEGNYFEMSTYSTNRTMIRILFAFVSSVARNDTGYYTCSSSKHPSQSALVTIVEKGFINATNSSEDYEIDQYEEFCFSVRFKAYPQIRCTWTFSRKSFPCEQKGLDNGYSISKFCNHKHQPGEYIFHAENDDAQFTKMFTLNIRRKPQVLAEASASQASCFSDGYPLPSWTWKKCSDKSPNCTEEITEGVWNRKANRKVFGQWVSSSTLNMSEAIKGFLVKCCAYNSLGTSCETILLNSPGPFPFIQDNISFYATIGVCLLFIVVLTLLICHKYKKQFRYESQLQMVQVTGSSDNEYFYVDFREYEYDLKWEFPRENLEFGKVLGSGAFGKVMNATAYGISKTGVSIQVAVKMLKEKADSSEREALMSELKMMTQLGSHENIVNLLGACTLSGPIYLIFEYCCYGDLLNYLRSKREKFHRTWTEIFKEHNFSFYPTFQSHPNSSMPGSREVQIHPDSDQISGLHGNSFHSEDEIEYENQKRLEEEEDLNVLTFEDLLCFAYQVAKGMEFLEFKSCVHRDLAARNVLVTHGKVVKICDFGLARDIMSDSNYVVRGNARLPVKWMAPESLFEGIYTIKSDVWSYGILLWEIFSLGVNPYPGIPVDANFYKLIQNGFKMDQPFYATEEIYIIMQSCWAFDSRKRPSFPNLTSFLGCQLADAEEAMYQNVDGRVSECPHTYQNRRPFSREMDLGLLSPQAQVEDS
# Excerpt: Experimental Example 1. Measurement of FLT3 and FLT Enzyme Activity
# Changes in FLT3 and FLT enzyme activities by treatment with the quinazoline derivatives of the following Table 1 according to the present invention were confirmed by IC50.
# Aurora A = Aurora A (Homo sapiens, UniProt O14965); experiment: Kinase panel screening; conditions: single dose of 10 μM, read-out: % inhibition rate
# c-Src = c-Src (Homo sapiens, UniProt P12931); experiment: Kinase panel screening; conditions: single dose of 10 μM, read-out: % inhibition rate
# CAMKK1 = CAMKK1 (Homo sapiens, UniProt Q8N5S9); experiment: Kinase panel screening; conditions: single dose of 10 μM, read-out: % inhibition rate
# ERK1 = ERK1 (Homo sapiens, UniProt P27361); experiment: Kinase panel screening; conditions: single dose of 10 μM, read-out: % inhibition rate
# FLT3 = molecular target: T2, FLT3 (Homo sapiens, UniProt P36888); experiment: Kinase panel screening; conditions: single dose of 10 μM
# T2 sequence (P36888 27-993): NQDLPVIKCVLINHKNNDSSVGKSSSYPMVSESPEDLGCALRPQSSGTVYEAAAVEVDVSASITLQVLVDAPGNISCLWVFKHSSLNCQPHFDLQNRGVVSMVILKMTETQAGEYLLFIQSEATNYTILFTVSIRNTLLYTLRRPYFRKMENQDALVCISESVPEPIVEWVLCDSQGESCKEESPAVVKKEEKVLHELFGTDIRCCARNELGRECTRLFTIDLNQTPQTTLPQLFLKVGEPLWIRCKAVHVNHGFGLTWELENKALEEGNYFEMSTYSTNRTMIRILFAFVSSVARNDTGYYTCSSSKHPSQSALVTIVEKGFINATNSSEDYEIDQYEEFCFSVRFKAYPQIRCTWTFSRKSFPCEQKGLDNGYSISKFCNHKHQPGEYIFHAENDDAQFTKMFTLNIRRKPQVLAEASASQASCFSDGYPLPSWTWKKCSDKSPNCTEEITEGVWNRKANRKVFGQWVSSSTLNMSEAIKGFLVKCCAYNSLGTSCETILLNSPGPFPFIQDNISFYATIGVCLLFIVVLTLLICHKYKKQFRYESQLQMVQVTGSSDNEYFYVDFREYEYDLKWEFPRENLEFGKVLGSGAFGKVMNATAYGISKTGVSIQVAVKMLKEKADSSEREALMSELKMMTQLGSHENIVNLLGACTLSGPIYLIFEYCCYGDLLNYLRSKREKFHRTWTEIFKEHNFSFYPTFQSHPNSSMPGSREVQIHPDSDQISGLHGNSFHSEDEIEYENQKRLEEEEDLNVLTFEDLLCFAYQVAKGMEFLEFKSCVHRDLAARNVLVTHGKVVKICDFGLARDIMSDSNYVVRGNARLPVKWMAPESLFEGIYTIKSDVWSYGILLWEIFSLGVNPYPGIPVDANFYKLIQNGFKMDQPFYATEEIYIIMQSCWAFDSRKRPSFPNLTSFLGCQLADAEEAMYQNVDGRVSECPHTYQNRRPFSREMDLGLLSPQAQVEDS
# FMS = FMS (Homo sapiens, UniProt P07333); experiment: Kinase panel screening; conditions: single dose of 10 μM, read-out: % inhibition rate
# IGF1R = IGF1R (Homo sapiens, UniProt P08069); experiment: Kinase panel screening; conditions: single dose of 10 μM, read-out: % inhibition rate
# JNK3 = JNK3 (Homo sapiens, UniProt P53779); experiment: Kinase panel screening; conditions: single dose of 10 μM, read-out: % inhibition rate
# LCK = LCK (Homo sapiens, UniProt P06239); experiment: Kinase panel screening; conditions: single dose of 10 μM, read-out: % inhibition rate
# LYN = LYN (Homo sapiens, UniProt P07948); experiment: Kinase panel screening; conditions: single dose of 10 μM, read-out: % inhibition rate
# P38a/MAPK14 = P38a/MAPK14 (Homo sapiens, UniProt Q16539); experiment: Kinase panel screening; conditions: single dose of 10 μM, read-out: % inhibition rate
# PLK1 = PLK1 (Homo sapiens, UniProt P53350); experiment: Kinase panel screening; conditions: single dose of 10 μM, read-out: % inhibition rate
# RON/MST1R = RON/MST1R (Homo sapiens, UniProt Q04912); experiment: Kinase panel screening; conditions: single dose of 10 μM, read-out: % inhibition rate
# ROS/ROS1 = ROS/ROS1 (Homo sapiens, UniProt P08922); experiment: Kinase panel screening; conditions: single dose of 10 μM, read-out: % inhibition rate
# SYK = SYK (Homo sapiens, UniProt P43405); experiment: Kinase panel screening; conditions: single dose of 10 μM, read-out: % inhibition rate
# PLK1, sequence (P53350 whole entry, species assumed): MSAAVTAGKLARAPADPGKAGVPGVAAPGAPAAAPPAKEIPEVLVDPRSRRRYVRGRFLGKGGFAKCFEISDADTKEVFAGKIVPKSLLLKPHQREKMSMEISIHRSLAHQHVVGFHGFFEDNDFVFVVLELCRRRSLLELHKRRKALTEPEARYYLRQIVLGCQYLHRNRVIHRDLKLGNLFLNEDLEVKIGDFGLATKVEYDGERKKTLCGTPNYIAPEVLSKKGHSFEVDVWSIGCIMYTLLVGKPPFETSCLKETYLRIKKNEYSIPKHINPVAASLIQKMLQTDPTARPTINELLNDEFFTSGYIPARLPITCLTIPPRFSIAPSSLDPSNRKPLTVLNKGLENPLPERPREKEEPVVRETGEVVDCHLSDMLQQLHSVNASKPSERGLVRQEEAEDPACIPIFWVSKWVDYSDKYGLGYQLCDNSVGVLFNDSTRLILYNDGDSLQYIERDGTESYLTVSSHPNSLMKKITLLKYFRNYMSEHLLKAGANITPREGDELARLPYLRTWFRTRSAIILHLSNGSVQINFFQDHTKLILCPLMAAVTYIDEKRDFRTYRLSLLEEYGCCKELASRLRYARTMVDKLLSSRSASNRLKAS
# CAMKK1, sequence (Q8N5S9 whole entry, species assumed): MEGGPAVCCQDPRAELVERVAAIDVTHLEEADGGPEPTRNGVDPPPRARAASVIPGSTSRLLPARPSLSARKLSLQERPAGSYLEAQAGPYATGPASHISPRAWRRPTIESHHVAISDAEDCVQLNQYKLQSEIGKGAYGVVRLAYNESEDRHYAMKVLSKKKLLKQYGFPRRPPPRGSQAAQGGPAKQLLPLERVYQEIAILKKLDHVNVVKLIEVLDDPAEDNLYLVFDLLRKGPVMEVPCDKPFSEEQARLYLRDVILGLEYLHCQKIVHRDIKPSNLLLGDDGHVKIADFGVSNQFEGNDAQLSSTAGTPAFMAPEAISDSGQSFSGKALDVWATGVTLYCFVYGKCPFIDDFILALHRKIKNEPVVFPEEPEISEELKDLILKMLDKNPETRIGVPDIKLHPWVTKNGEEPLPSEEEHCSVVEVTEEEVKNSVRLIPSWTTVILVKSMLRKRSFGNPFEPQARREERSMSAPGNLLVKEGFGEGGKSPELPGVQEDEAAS
# ROS/ROS1, sequence (P08922 28-2347): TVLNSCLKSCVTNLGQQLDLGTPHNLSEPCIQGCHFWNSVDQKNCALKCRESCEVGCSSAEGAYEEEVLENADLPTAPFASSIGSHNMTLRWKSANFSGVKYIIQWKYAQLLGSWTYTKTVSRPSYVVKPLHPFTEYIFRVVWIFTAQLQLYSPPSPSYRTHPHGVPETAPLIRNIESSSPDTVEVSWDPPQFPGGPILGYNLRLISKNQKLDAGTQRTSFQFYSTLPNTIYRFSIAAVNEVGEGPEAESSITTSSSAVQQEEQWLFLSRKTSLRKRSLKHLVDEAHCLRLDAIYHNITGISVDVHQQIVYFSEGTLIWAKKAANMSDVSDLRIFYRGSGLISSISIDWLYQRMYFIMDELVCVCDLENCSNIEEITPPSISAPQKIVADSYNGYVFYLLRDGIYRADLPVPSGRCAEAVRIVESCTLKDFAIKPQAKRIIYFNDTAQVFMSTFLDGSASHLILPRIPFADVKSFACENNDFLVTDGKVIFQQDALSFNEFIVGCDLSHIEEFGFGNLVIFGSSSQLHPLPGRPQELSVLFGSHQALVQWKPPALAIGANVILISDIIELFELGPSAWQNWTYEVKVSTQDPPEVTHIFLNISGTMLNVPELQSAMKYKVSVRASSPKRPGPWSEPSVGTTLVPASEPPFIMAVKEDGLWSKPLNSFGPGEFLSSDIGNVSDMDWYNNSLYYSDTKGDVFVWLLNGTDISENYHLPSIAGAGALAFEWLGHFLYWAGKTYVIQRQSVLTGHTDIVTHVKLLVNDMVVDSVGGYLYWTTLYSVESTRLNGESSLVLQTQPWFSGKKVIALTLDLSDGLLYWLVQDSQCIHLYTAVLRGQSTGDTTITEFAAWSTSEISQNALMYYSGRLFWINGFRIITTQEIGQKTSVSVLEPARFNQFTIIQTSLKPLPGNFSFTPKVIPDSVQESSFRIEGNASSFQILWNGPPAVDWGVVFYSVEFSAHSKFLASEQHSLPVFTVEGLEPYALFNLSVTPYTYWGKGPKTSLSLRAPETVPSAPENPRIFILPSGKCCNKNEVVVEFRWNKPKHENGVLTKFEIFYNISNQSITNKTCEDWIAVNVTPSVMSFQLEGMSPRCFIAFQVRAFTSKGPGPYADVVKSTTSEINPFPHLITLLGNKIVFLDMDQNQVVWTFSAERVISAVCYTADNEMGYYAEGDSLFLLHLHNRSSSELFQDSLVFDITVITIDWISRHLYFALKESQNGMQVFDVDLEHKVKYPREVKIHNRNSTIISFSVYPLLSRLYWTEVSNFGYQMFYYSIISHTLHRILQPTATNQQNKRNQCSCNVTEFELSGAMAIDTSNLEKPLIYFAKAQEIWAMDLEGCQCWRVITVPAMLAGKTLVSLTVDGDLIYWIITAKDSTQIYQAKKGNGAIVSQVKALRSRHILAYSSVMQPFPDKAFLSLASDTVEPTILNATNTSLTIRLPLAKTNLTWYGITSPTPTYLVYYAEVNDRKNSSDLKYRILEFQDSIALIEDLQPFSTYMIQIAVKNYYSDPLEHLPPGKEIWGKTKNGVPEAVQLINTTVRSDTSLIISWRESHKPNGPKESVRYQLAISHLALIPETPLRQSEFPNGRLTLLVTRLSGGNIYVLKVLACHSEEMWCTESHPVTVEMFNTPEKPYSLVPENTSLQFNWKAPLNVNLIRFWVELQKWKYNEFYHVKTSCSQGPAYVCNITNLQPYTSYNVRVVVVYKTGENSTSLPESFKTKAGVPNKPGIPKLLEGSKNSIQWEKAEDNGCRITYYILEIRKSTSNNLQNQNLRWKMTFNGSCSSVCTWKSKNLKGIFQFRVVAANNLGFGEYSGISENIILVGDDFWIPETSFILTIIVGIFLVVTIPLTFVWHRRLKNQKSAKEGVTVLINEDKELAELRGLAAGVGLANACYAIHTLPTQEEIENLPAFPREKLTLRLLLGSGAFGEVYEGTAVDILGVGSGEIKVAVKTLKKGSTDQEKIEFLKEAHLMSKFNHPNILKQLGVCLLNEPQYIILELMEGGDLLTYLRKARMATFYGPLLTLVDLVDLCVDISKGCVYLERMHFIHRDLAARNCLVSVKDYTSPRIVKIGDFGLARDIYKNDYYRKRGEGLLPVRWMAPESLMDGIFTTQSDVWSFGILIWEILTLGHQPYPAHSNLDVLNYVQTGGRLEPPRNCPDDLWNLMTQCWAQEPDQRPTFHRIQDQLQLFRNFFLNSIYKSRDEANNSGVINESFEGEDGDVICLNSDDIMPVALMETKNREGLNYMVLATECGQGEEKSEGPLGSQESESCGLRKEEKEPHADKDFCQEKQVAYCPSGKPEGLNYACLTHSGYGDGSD
# JNK3, sequence (P53779 whole entry, species assumed): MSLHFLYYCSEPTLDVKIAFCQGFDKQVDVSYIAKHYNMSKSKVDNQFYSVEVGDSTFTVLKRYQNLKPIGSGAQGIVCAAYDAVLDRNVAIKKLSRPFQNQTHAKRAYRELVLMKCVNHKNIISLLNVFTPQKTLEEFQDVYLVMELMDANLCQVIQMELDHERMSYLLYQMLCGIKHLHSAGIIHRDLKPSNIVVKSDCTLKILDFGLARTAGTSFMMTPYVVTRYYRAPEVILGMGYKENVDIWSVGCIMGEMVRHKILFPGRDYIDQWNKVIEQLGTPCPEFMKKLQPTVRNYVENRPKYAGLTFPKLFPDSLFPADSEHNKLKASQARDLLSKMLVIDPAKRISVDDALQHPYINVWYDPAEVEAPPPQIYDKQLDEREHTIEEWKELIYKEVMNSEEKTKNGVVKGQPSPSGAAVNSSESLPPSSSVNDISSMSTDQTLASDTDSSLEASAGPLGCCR
# c-Src, sequence (P12931 whole entry, species assumed): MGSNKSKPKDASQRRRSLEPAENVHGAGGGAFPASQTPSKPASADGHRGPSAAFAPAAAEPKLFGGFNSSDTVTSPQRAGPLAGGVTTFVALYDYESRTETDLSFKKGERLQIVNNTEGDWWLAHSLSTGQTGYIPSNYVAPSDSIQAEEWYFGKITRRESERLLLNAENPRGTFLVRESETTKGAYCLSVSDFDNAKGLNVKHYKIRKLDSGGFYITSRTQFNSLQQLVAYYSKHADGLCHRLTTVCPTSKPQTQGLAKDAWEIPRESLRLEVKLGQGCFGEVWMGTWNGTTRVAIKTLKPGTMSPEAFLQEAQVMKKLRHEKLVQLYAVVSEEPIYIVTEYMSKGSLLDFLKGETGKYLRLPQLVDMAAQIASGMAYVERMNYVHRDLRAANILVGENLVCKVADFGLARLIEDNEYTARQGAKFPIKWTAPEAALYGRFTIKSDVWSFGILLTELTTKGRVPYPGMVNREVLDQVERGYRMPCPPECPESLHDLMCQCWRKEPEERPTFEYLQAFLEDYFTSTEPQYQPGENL
# Aurora A, sequence (O14965 whole entry): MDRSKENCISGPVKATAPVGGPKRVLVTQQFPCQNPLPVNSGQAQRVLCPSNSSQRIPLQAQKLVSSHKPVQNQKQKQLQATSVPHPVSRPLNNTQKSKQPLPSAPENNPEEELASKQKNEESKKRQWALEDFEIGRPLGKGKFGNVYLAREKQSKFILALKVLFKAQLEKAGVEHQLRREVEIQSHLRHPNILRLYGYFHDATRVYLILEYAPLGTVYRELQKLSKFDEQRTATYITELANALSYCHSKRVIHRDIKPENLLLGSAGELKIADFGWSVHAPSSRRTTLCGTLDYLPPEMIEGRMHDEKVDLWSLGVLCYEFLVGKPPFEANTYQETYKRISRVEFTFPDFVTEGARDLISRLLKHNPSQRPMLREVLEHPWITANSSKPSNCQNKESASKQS
smiles,measurement,setting,value
"Cc1oncc1C(=O)Nc1ccc2cnc(-c3cc(N4CCN(C)CC4)cc(C(F)(F)F)c3)nc2c1 [Compound 7d, 5-methyl-N-(2-(3-(4-methylpiperazin-1-yl)-5-(trifluoromethyl)phenyl)quinazolin-7-yl)isoxazole-4-carboxamide]",pIC50,FLT (ITD); read-out: FLT (ITD) IC50,> 5.52
same,pIC50,FLT (ITD); read-out: IC50 against FLT-ITD,6.52
same,inhibition at 10 µM,Aurora A,20.1%
same,inhibition at 10 µM,c-Src,14.6%
same,inhibition at 10 µM,CAMKK1,0%
same,inhibition at 10 µM,ERK1,15%
same,% inhibition rate,FLT3,96.6%
same,inhibition at 10 µM,FMS,5.49%
same,inhibition at 10 µM,IGF1R,0%
same,inhibition at 10 µM,JNK3,19.5%
same,inhibition at 10 µM,LCK,19.7%
same,inhibition at 10 µM,LYN,20.5%
same,inhibition at 10 µM,P38a/MAPK14,0%
same,inhibition at 10 µM,PLK1,0%
same,inhibition at 10 µM,RON/MST1R,13.5%
same,inhibition at 10 µM,ROS/ROS1,14.4%
same,inhibition at 10 µM,SYK,22.4%
